# Assay results reported in the supplement of paper PMC6045584.
# ± gives the standard deviation of the averaged measurements.
# How the values were obtained:
# AFATINIB = compound: CN(C)C/C=C/C(=O)Nc1cc2c(Nc3ccc(F)c(Cl)c3)ncnc2cc1O[C@H]1CCOC1 [AFATINIB]; assay: surviving fraction relative to DMSO-only wells; higher = less growth inhibition; conditions: exposure time: 5 days
# In short: (§1)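 Inhibitors at 0.5, 1, 5, 10, 50, 100, 500 and 1000 nM were applied continuously for five days to tumour cell lines seeded in log phase at 250–500 cells per well in 384-well plates 24 hours earlier. Viability was measured by CellTiter-Glo luminescence and expressed as surviving fraction relative to the median of DMSO-only wells. Luminescence was taken after 10 minutes at room temperature.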
# MDV3100 [1] = compound: T1, CNC(=O)c1ccc(N2C(=S)N(c3ccc(C#N)c(C(F)(F)F)c3)C(=O)C2(C)C)cc1F [MDV3100]; assay: as above; conditions: exposure time: 5 days
# In short: as §1
# SNX-5422 = compound: CC1(C)CC(=O)c2c(C(F)(F)F)nn(-c3ccc(C(N)=O)c(N[C@H]4CC[C@H](OC(=O)CN)CC4)c3)c2C1 [SNX-5422]; assay: area under dose-response curve of surviving fraction (unscaled, Aref=0) (surviving fraction x log10(nM)); higher = more resistant; conditions: exposure time: 5 days; dose range 0.5-1000 nM
# In short: (§2)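 Surviving fractions were fitted by 3-parameter logistic regression in the drc R package to give dose-response survival curves. They came from tumour cell lines treated for five days with eight inhibitor concentrations from 0.5 to 1000 nM and read by CellTiter-Glo luminescence against DMSO-only wells. The area under the curve is the unscaled activity area. It was calculated over log10 dose with Aref = 0.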
# BI-2536 = compound: CC[C@@H]1C(=O)N(C)c2cnc(Nc3ccc(C(=O)NC4CCN(C)CC4)cc3OC)nc2N1C1CCCC1 [BI-2536]; assay: as above; conditions: exposure time: 5 days; dose range 0.5-1000 nM
# In short: as §2
# MDV3100 [2] = compound: T1, MDV3100; assay: as above; conditions: exposure time: 5 days; dose range 0.5-1000 nM
# In short: as §2
# TIOGUANINE = compound: Nc1nc2[nH]cnc2c(=S)[nH]1 [TIOGUANINE]; assay: as above; conditions: exposure time: 5 days; dose range 0.5-1000 nM
# In short: as §2
Test System,surviving fraction (AFATINIB; 0.5 nM),surviving fraction (AFATINIB; 1 nM),surviving fraction (AFATINIB; 5 nM),surviving fraction (AFATINIB; 10 nM),surviving fraction (AFATINIB; 50 nM),surviving fraction (AFATINIB; 100 nM),surviving fraction (AFATINIB; 500 nM),surviving fraction (AFATINIB; 1000 nM),surviving fraction (MDV3100 [1]; 0.5 nM),surviving fraction (MDV3100 [1]; 1 nM),surviving fraction (MDV3100 [1]; 5 nM),surviving fraction (MDV3100 [1]; 10 nM),surviving fraction (MDV3100 [1]; 50 nM),surviving fraction (MDV3100 [1]; 100 nM),surviving fraction (MDV3100 [1]; 500 nM),surviving fraction (MDV3100 [1]; 1000 nM),area under dose-response curve (SNX-5422),area under dose-response curve (BI-2536),area under dose-response curve (MDV3100 [2]),area under dose-response curve (TIOGUANINE)
22RV1 PROSTATE,1.03 ± 0.098,1.05 ± 0.063,1.01 ± 0.037,0.977 ± 0.087,0.984 ± 0.052,0.916 ± 0.028,0.737 ± 0.057,0.515 ± 0.065,0.953 ± 0.067,0.954 ± 0.061,0.997 ± 0.051,0.938 ± 0.066,0.934 ± 0.12,0.968 ± 0.04,0.862 ± 0.21,0.781 ± 0.27,1.82,0.963,3.12,3.28
93VU HEADNECK,0.895 ± 0.046,0.883 ± 0.053,0.697 ± 0.075,0.59 ± 0.043,0.469 ± 0.085,0.46 ± 0.049,0.387 ± 0.017,0.302 ± 0.022,0.848 ± 0.096,0.876 ± 0.058,1.05 ± 0.099,0.994 ± 0.12,1.07 ± 0.15,1.04 ± 0.22,0.887 ± 0.03,0.771 ± 0.016,2.18,1.49,3.11,3.19
A549 LUNG,1.02 ± 0.068,1.02 ± 0.053,0.987 ± 0.05,0.965 ± 0.056,1.03 ± 0.025,1.03 ± 0.019,1.04 ± 0.05,1.03 ± 0.034,0.971 ± 0.011,0.941 ± 0.029,0.978 ± 0.011,0.934 ± 0.032,1 ± 0.038,1.01 ± 0.015,1.01 ± 0.033,0.983 ± 0.04,2.28,1.16,3.23,3.21
ASKA SYNOVIAL,1.13 ± 0.029,1.09 ± 0.035,1.15 ± 0.083,1.1 ± 0.11,1.15 ± 0.029,1.14 ± 0.028,0.78 ± 0.023,0.404 ± 0.023,1.01 ± 0.051,0.966 ± 0.037,1.05 ± 0.017,0.59 ± 0.051,1.15 ± 0.13,1.07 ± 0.065,1.14 ± 0.095,0.678 ± 0.079,2.11,1.04,,3.56
BT549 BREAST,1.08 ± 0.1,1.12 ± 0.072,1.11 ± 0.11,1.07 ± 0.2,0.919 ± 0.15,1.09 ± 0.066,0.696 ± 0.15,0.278 ± 0.082,0.957 ± 0.078,1.02 ± 0.089,1 ± 0.11,0.939 ± 0.0099,1.01 ± 0.036,0.996 ± 0.099,0.992 ± 0.076,0.98 ± 0.057,1.94,0.891,3.26,3.29
C33A CERVIX,0.907 ± 0.059,1.02 ± 0.12,0.909 ± 0.046,0.939 ± 0.085,0.507 ± 0.0065,0.417 ± 0.0072,0.337 ± 0.038,0.23 ± 0.0027,0.753 ± 0.059,0.772 ± 0.05,0.976 ± 0.063,1.07 ± 0.15,0.983 ± 0.098,1.02 ± 0.05,0.834 ± 0.059,0.868 ± 0.044,1.96,0.996,3.15,2.8
CAL51 BREAST,0.97 ± 0.048,1.02 ± 0.022,1.002 ± 0.0031,0.977 ± 0.033,1.04 ± 0.019,1.02 ± 0.028,0.963 ± 0.085,0.682 ± 0.06,0.969 ± 0.025,0.944 ± 0.014,0.985 ± 0.016,0.976 ± 0.013,0.984 ± 0.029,1.05 ± 0.042,0.978 ± 0.11,0.979 ± 0.082,1.93,0.68,3.24,3.31
CAL72 BONE,1.09 ± 0.021,1.02 ± 0.061,1.07 ± 0.018,1.06 ± 0.042,1.11 ± 0.011,1.1 ± 0.036,0.984 ± 0.031,0.893 ± 0.053,0.965 ± 0.087,0.992 ± 0.041,1 ± 0.073,1 ± 0.021,1.08 ± 0.076,0.986 ± 0.17,1.05 ± 0.13,1.02 ± 0.15,2.02,0.831,3.36,3.66
